Patent publication US20240148709A1, “METHODS OF TREATING EYE PAIN AND EYE DISORDERS” (Aisa Pharma, Inc., priority 2022, published 2024)
Entries after “also recorded” stand apart in the source; their conditions may differ. Marks after values point to notes of the source that are not given here.

Legend:
[1] = given orally; cited from earlier work
[2] = 10 mg cilnidipine, healthy volunteers, single oral dose, cited from earlier work
Nav 1.7 sodium channel = Nav 1.7 sodium channel (Homo sapiens, UniProt Q15858); details: 20 mg dose of cilnidipine; cited from earlier work
Sequence of Nav 1.7 sodium channel (Q15858 whole entry): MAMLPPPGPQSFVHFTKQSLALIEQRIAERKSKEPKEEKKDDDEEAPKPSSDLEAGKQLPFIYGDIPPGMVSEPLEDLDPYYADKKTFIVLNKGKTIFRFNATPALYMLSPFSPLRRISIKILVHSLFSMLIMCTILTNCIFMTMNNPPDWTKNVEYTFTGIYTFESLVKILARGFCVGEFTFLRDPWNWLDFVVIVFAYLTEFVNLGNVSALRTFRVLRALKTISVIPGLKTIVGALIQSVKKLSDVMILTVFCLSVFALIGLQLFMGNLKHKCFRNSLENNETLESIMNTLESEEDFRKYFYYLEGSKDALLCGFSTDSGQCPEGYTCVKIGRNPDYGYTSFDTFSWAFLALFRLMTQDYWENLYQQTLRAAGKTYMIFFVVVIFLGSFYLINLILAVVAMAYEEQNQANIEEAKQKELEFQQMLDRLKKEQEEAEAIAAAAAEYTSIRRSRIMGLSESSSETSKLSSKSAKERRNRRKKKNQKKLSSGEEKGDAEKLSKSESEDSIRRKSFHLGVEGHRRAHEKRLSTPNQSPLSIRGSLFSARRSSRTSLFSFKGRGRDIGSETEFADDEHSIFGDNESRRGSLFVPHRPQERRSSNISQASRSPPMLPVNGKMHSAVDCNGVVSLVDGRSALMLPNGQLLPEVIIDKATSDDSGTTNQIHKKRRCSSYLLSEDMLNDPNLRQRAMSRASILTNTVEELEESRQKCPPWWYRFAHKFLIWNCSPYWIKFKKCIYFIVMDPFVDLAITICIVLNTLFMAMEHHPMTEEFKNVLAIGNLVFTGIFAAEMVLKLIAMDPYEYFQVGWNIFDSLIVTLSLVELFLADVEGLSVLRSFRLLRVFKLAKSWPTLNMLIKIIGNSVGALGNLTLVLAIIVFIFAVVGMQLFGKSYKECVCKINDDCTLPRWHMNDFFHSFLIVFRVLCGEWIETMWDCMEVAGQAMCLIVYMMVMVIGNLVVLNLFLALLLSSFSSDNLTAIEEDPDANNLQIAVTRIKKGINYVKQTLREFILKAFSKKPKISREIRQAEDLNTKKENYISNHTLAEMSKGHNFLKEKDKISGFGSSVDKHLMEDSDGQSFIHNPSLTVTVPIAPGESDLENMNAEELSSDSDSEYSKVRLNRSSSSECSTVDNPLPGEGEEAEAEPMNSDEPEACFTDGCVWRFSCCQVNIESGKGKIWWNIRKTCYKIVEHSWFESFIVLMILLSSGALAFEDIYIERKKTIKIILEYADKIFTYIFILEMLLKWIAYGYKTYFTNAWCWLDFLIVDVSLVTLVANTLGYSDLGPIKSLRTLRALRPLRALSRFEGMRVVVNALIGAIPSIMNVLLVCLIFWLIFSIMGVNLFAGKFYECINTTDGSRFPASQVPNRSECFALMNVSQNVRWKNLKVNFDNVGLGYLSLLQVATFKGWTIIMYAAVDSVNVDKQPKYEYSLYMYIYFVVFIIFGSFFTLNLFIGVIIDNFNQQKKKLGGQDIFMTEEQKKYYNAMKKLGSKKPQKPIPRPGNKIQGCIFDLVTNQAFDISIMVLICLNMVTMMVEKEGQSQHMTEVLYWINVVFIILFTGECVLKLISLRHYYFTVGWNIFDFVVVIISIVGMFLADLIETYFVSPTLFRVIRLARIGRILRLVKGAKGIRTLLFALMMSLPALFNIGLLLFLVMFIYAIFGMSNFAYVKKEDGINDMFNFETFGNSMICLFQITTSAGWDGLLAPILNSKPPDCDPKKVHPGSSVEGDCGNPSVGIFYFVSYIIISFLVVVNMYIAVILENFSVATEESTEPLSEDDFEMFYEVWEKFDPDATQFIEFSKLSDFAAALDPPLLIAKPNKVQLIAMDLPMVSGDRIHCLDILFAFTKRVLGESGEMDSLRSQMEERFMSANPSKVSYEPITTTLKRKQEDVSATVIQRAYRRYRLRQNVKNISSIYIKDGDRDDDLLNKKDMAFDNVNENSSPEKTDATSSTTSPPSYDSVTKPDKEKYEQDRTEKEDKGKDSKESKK

participants with SSc-RP [3] = experiment: Raynaud's attack diary endpoints (frequency, duration, severity, pain, RCS), Phase 2a study Part A; format: in vivo, human
Description: Part A—double-blind, placebo-controlled, parallel-group, dose selection, will assess the safety and efficacy of two doses of cilnidipine (10 mg and 20 mg), alone and in combination with tadalafil. A total of 36 participants will be randomized to one of six prespecified treatment arms. Refer to FIG. 1 for treatment arms in Part A of the study. Dosing last for 12 (±2) days in which participants will self-administer daily doses of assigned treatment in the morning. Each participant will take one capsule and one tablet to blind the active therapy being received.
During screening, the Diary will collect the following data to confirm eligibility and serve as the baseline measure for efficacy endpoints should the participant be randomized: • Number of daily Raynaud's attacks • Duration of each attack • Symptoms of each attack, including numbness, pain, tingling, color changes • Severity of each attack (all symptoms of the attack to be considered including tingling, numbness, pain, color changes) • Location of participant during each attack (inside/outside) • Pain score of each attack-using 11-point Likert scale, a validated pain scale which can be used to record intensity of pain. • Daily RCS— a validated outcome measure used to assess the level of difficulty experienced due to RP each day.
The relevant metrics measured by this tool daily are: • Study medication • SSc-RP symptoms (Reporting an attack including duration of attack) • Severity of the attack considering all symptoms of the attack e.g. tingling, numbness, pain, color changes (VAS 0-10 cm scale) • Participant's location at the time of the attack (inside home/outside home) • Selecting symptoms experienced during the attack (tingling, numbness, pain, color changes, other) • Pain rating during the attack (11-point Likert scale) • The RCS based on how much difficulty participants had with Raynaud's today, how many attacks the participant had, and how long they lasted. Participants will also be asked to consider how much pain, numbness, or other symptoms the Raynaud's caused in fingers (including painful sores), and how much the Raynaud's alone affected the use of hands today (VAS 0-10 cm scale).
Percent change from baseline evaluation for frequency of weekly RP attacks will be the primary efficacy endpoint. Data collected in the last 7 days of each dosing period will be used for this analysis. Screening assessments will be used as baseline for the analysis of all periods. No multiple comparison adjustment will be used to control alpha for the multiple comparisons. Mixed effects model will be used for analysis of the primary endpoint according to the crossover design. Other efficacy endpoints of continuous variables will be analyzed using similar methodology. For nominal data, chi-square tests will be applied. Generalized Estimating Equations method will be used, as appropriate, for adjusting for potential confounding factors. In addition, the final analysis will assess whether in this study of severe Raynaud's disease participants, the minimally important difference, previously concluded of 14-15 points on the 100 point RCS scale has been achieved in the cilnidipine dose group. It also will record the percentage of participants achieving a PASS (34 point difference from baseline on a 0-100 VAS) in each treatment group.

participants with SSc-RP [4] = experiment: Safety: adverse events and withdrawals, Phase 2a study Part A; format: in vivo; details: for overall adverse event rate: all patients who received any dose of cilnidipine (n=17)
Description: • Incidence of treatment emergent adverse events (AEs) and serious adverse events (SAEs), including clinically significant vital signs. For Part A safety will be assessed from the time of randomization until 7 days following the last protocol dose. For Part B, participants will be followed for 28 days from the last study dose. • Serious adverse events will be monitored by a DSMB (Part A) and Drug Safety Officer (Part B) on an ongoing basis throughout the study. • Adverse events will be coded using the MedDRA and summarized by SOC, PT, and treatment group.
Severity of AEs will be graded by the Investigator as one of: • Mild (Grade 1): A type of AE that is usually transient and may require only minimal treatment or therapeutic intervention.
Adverse events will be coded using the most current version of the MedDRA® Version 22.0 or higher. The analysis of AEs will be based on the concept of treatment emergent AEs. Treatment emergent AEs will be tabulated by treatment group and will include the number of participants for whom the event occurred, the severity, and relationship to study drug. Treatment emergent AEs (TEAEs) leading to discontinuation and SAEs with onset after the start of study drug will also be summarized. All AEs and SAEs (including those with onset or worsening before the start of study drug) through the end of the study will be listed.

[5] = oral dosing; cited from earlier work
[6] = cilnidipine 10 mg and/or tadalafil 5 mg arms
[7] = cilnidipine 20 mg arms (alone or + tadalafil 5 mg)

## COCCOC(=O)C1=C(C)NC(C)=C(C(=O)OC/C=C/c2ccccc2)C1c1cccc([N+](=O)[O-])c1 (stereo not shown) [Cilnidipine, cilnidipine]
[1]
  protein binding in plasma: 98%
[2]; mean (±SD)
  AUCinf: 41.2 (±20.4) ng*h/mL
  AUClast: 37.0 (±17.9) ng*hr/mL
  CL/F: 304.7(±147.5) L/hr
  Cmax: 8.9 (±4.2) ng/mL
  T1/2: 7.5(±1.0) hr
[2]; median (minimum-maximum)
  Tmax: 2 (0.5-5) hr
Nav 1.7 sodium channel
  inhibition of Nav 1.7 compared to an 1800 mg dose of gabapentin: > 6 fold
Participants with SSc-RP [3]; Cilnidipine 20 mg (n = 1)
  Subgroup Baseline RCS <3.5, % change: baseline −42%
Participants with SSc-RP [3]; Cilnidipine 20 mg (n = 2)
  Subgroup Baseline RCS >3.5-7.5, % change: baseline −43%
  Subgroup attack frequency, <10 baseline, % change: baseline −29%
  Subgroup attack frequency, >10 baseline, % change: baseline −50%
Participants with SSc-RP [3]; Cilnidipine 20 mg (n = 3)
  Average Raynaud's Pain, % change: 12%
  Daily RCS Change: −28%
  Duration, % change: −20%
  Mean % reduction in RCS: 27.9%
  Mean % reduction in duration: 20.0%
  Mean % reduction in pain: −11.8%
  Mean % reduction in severity: 35.5%
  Mean % reduction of weekly attacks: 43%
  Severity, % change: −36%
  Weekly attack frequency, % change: −43%
  Weekly attack frequency, % change, if baseline RCS <3.5: −42%
Participants with SSc-RP [3]; Pooled Cilnidipine (n = 1)
  Subgroup Baseline RCS 3.5-7.5, % change: baseline −86%
Participants with SSc-RP [3]; Pooled Cilnidipine (n = 2)
  Subgroup attack frequency, <10 baseline, % change: baseline −55%
  Subgroup attack frequency, >10 baseline, % change: baseline −28%
Participants with SSc-RP [3]; Pooled Cilnidipine (n = 3)
  Daily RCS Change: 12% (n = 3)
  Subgroup Baseline RCS <3.5, % change: baseline −27%
Participants with SSc-RP [3]; Pooled Cilnidipine (n = 7)
  Average Raynaud's Pain, % change: −27%
  Duration, % change: 20%
  Severity, % change: −16%
  Weekly attack frequency, % change: −41%
  Weekly attack frequency, % change, if baseline RCS <3.5: −27%
Participants with SSc-RP [3]; both doses (10 and 20 mg)
  DSMB finding on Raynaud's endpoints: effective at reducing Raynaud's endpoints
Participants with SSc-RP [3]; [6]
  Average Pain Score Change From Baseline [Mean (SD)]: 0.47 (0.558)
  Average Pain Score Percent Change from Baseline [Mean (SD)]: 11.76 (27.478)† %
  Average Pain Score [Mean (SD)] after treatment (Raynaud's pain): 2.82 (2.268)
Participants with SSc-RP [3]; [7]
  Average Pain Score Change From Baseline [Mean (SD)]: −0.47 (2.025)
  Average Pain Score Percent Change from Baseline [Mean (SD)]: −26.89 (89.725)* %
  Average Pain Score [Mean (SD)] after treatment (Raynaud's pain): 1.28 (1.993)
Participants with SSc-RP [4]; 10 mg and 20 mg, alone or in combination with tadalafil
  tolerability: well tolerated; also recorded: good tolerability
Participants with SSc-RP [4]; Cilnidipine 20 mg column (n = 8)
  Safety: withdrawals: 1 withdrawal
Participants with SSc-RP [4]; Cilnidipine 20 mg, HA-mild (n = 8)
  Safety: number of AE: 1AE (HA-mild;
Participants with SSc-RP [4]; Pooled Cilnidipine, in combo with T (n = 9)
  Safety: number of AE: 1AE (in combo
Participants with SSc-RP [4]
  overall adverse event rate: 17%
Participants with SSc-RP [4]; listed as Profervia
  overall adverse event rate: 17% adverse
Participants with SSc-RP [4]; any dose of cilnidipine (n=17)
  treatment discontinuations due to intolerance: no treatment discontinuations due to intolerance
Participants with SSc-RP [4]; patients treated with cilnidipine
  severity grade of adverse events: only Grade 1 Adverse Events (AEs) were reported; also recorded: only mild (Grade 1) adverse events occurred
[5]
  time to achieve maximal plasma concentration (Tmax): ≤ 2 h

## CN1CC(=O)N2[C@H](c3ccc4c(c3)OCO4)c3[nH]c4ccccc4c3C[C@@H]2C1=O [Tadalafil, tadalafil]
Participants with SSc-RP [3]; [6]
  Average Pain Score Change From Baseline [Mean (SD)]: 0.37 (2.219)
  Average Pain Score Percent Change from Baseline [Mean (SD)]: 17.20 (64.838) %
  Average Pain Score [Mean (SD)] after treatment (Raynaud's pain): 5.84 (4.768)
